In ChEMBL document CHEMBL4152302, “Benzo[d]thiazole-2-carbanilides as new anti-TB chemotypes: Design, synthesis, biological evaluation, and structure-activity relationship” (Eur J Med Chem, 2018):

Experiments:
[1] = tested on: Mycobacterium tuberculosis; test: Antimycobacterial activity against Mycobacterium tuberculosis H37Rv ATCC 27294 after 28 days by Two-fold serial dilution assay; assay type: functional; settings: H37Rv ATCC 27294, 672 h
[2] = Cytotoxicity against mouse RAW264.7 cells assessed as inhibition of cell viability at 50 ug/ml after 72 hrs by MTT assay relative to control; assay type: cell-based; settings: read-out: INH
[3] = Selectivity index, ratio of cytotoxic concentration for mouse RAW264.7 cells to MIC99 for Mycobacterium tuberculosis H37Rv ATCC 27294; assay type: toxicity; settings: read-out: Selectivity Index

| SMILES | MIC [1] | cytotoxicity at 72 h, 50 ug/ml [2] | selectivity ratio [3] |
| --- | --- | --- | --- |
| COc1ccc(NC(=O)c2nc3ccccc3s2)cc1 | 22 µM | 24.6% | – |
| O=C(Nc1ccc(N2CCOCC2)cc1)c1nc2ccccc2s1 | 4.6 µM | 18.9% | – |
| CCOC(=O)c1nc2ccccc2s1 | 121 µM | – | – |
| O=C(Nc1ccccc1)c1nc2ccccc2s1 | 98.3 µM | – | – |
| CCOC(=O)c1nc2cc(Cl)ccc2s1 | 12.9 µM | – | – |
| CCOC(=O)c1nc2cc(C(F)(F)F)ccc2s1 | 22.7 µM | – | – |
| O=C(Nc1cccc(C(F)(F)F)c1)c1nc2cc(Cl)ccc2s1 | 70.1 µM | – | – |
| Cc1cccc(NC(=O)c2nc3cc(C(F)(F)F)ccc3s2)c1 | 4.64 µM | 34.6% | – |
| O=C(Nc1ccc([N+](=O)[O-])cc1)c1nc2cc(Cl)ccc2s1 | 74.9 µM | – | – |
| O=C(Nc1cccc(C(F)(F)F)c1)c1nc2cc(C(F)(F)F)ccc2s1 | 16 µM | 19.8% | – |
| COc1cccc(NC(=O)c2nc3cc(Cl)ccc3s2)c1 | 2.45 µM | 18.7% | 64 |
| O=C(Nc1ccccc1Cl)c1nc2cc(C(F)(F)F)ccc2s1 | 70.1 µM | – | – |
| COc1cc(NC(=O)c2nc3ccccc3s2)cc(OC)c1OC | 2.26 µM | 30.1% | 64 |
| COc1ccccc1NC(=O)c1nc2cc(Cl)ccc2s1 | 78.4 µM | – | – |
| O=C(Nc1ccc(F)cc1)c1nc2ccccc2s1 | > 91.8 µM | – | – |
| Cc1ccc(NC(=O)c2nc3ccccc3s2)cc1 | 46.6 µM | – | – |
| O=C(Nc1cccc([N+](=O)[O-])c1)c1nc2cc(C(F)(F)F)ccc2s1 | 68.1 µM | – | – |
| COc1ccccc1NC(=O)c1nc2cc(C(F)(F)F)ccc2s1 | 4.43 µM | 43.2% | – |
| O=C(Nc1cccc(F)c1)c1nc2cc(Cl)ccc2s1 | 5.09 µM | 29.1% | – |
| O=C(Nc1ccc(Cl)cc1)c1nc2ccccc2s1 | > 86.6 µM | – | – |
| O=C(Nc1ccccc1N1CCOCC1)c1nc2cc(Cl)ccc2s1 | 66.9 µM | – | – |
| O=C(Nc1ccccc1)c1nc2cc(Cl)ccc2s1 | 86.6 µM | – | – |
| O=C(Nc1ccccc1)c1nc2cc(C(F)(F)F)ccc2s1 | 77.6 µM | – | – |
| O=C(Nc1ccc(N2CCOCC2)c(F)c1)c1nc2cc(Cl)ccc2s1 | 31.9 µM | – | – |
| O=C(Nc1cccc(F)c1)c1nc2cc(C(F)(F)F)ccc2s1 | 36.7 µM | – | – |
| O=C(Nc1cccc(Cl)c1)c1nc2cc(Cl)ccc2s1 | 77.3 µM | – | – |
| COc1cccc(NC(=O)c2nc3cc(C(F)(F)F)ccc3s2)c1 | 4.43 µM | 26.8% | – |

| SMILES | MIC [1] | cytotoxicity at 72 h, 50 ug/ml [2] | selectivity ratio [3] |
| --- | --- | --- | --- |
| O=C(Nc1ccc(N2CCOCC2)c(F)c1)c1nc2ccccc2s1 | > 70 µM | – | – |
| Cc1ccccc1NC(=O)c1nc2ccccc2s1 | > 93.2 µM | – | – |
| O=C(Nc1ccc(C(F)(F)F)cc1)c1nc2ccccc2s1 | 2.42 µM | 13.6% | 64 |
| O=C(Nc1ccc([N+](=O)[O-])cc1)c1nc2cc(C(F)(F)F)ccc2s1 | 2.12 µM | 32.6% | 64 |
| O=C(Nc1ccccc1N1CCOCC1)c1nc2cc(C(F)(F)F)ccc2s1 | 30.7 µM | – | – |
| COc1cc(NC(=O)c2nc3cc(Cl)ccc3s2)cc(OC)c1OC | 66 µM | – | – |
| O=C(Nc1ccc(C(F)(F)F)cc1)c1nc2cc(Cl)ccc2s1 | 4.37 µM | 41% | – |
| O=C(Nc1ccc(C(F)(F)F)cc1)c1nc2cc(C(F)(F)F)ccc2s1 | 64 µM | – | – |
| Cc1cccc(NC(=O)c2nc3cc(Cl)ccc3s2)c1 | 20.6 µM | 52.2% | – |
| O=C(Nc1cccc(C(F)(F)F)c1)c1nc2ccccc2s1 | 38.8 µM | – | – |
| Cc1ccccc1NC(=O)c1nc2cc(C(F)(F)F)ccc2s1 | 74.3 µM | – | – |
| O=C(Nc1ccc([N+](=O)[O-])cc1)c1nc2ccccc2s1 | 20.9 µM | 35.6% | – |
| COc1cccc(NC(=O)c2nc3ccccc3s2)c1 | > 87.9 µM | – | – |
| O=C(Nc1ccc(Br)cc1)c1nc2cc(Cl)ccc2s1 | 4.24 µM | 53.1% | – |
| COc1cc(NC(=O)c2nc3cc(C(F)(F)F)ccc3s2)cc(OC)c1OC | 1.89 µM | 23.4% | 64 |
| O=C(Nc1cccc(Cl)c1)c1nc2cc(C(F)(F)F)ccc2s1 | 35 µM | – | – |
| O=C(Nc1ccc(Cl)cc1)c1nc2cc(Cl)ccc2s1 | 2.35 µM | 28.9% | 64 |
| O=C(Nc1cccc(F)c1)c1nc2ccccc2s1 | 22.9 µM | 20.9% | – |
| O=C(Nc1ccc(N2CCOCC2)c(F)c1)c1nc2cc(C(F)(F)F)ccc2s1 | 29.4 µM | – | – |
| O=C(Nc1cccc(Cl)c1)c1nc2ccccc2s1 | 2.7 µM | 26.8% | 64 |
| O=C(Nc1ccc(Cl)cc1)c1nc2cc(C(F)(F)F)ccc2s1 | 2.19 µM | 36.7% | 64 |
| O=C(Nc1ccc(N2CCOCC2)cc1)c1nc2cc(Cl)ccc2s1 | 2.09 µM | 42.3% | 64 |
| O=C(Nc1ccccc1C(F)(F)F)c1nc2cc(Cl)ccc2s1 | 70.1 µM | – | – |
| O=C(Nc1ccccc1C(F)(F)F)c1nc2cc(C(F)(F)F)ccc2s1 | 2 µM | 27.8% | 64 |
| COc1ccc(NC(=O)c2nc3cc(Cl)ccc3s2)cc1 | 78.4 µM | – | – |
| Cc1ccc(NC(=O)c2nc3cc(C(F)(F)F)ccc3s2)cc1 | 4.64 µM | 47.8% | – |
| Cc1cc(C)c(NC(=O)c2nc3ccccc3s2)c(C)c1 | 5.26 µM | 17.9% | – |

| SMILES | MIC [1] | cytotoxicity at 72 h, 50 ug/ml [2] | selectivity ratio [3] |
| --- | --- | --- | --- |
| O=C(Nc1cccc([N+](=O)[O-])c1)c1nc2cc(Cl)ccc2s1 | 37.5 µM | – | – |
| O=C(Nc1ccc(F)cc1)c1nc2cc(C(F)(F)F)ccc2s1 | 73.5 µM | – | – |
| O=C(Nc1ccccc1Cl)c1nc2cc(Cl)ccc2s1 | 77.3 µM | – | – |
| O=C(Nc1cccc([N+](=O)[O-])c1)c1nc2ccccc2s1 | 2.61 µM | 38.4% | 64 |
| Cc1cccc(NC(=O)c2nc3ccccc3s2)c1 | > 93.2 µM | – | – |
| O=C(Nc1ccc(F)cc1)c1nc2cc(Cl)ccc2s1 | 5.09 µM | 34.6% | – |
| COc1ccccc1NC(=O)c1nc2ccccc2s1 | 11 µM | 16.7% | – |
| Cc1ccc(NC(=O)c2nc3cc(Cl)ccc3s2)cc1 | 5.15 µM | 22.6% | – |
| O=C(Nc1ccc(Br)cc1)c1nc2cc(C(F)(F)F)ccc2s1 | 62.3 µM | – | – |
| Cc1cc(C)c(NC(=O)c2nc3cc(Cl)ccc3s2)c(C)c1 | 75.6 µM | – | – |
| O=C(Nc1ccccc1N1CCOCC1)c1nc2ccccc2s1 | 36.8 µM | – | – |
| O=C(Nc1ccccc1F)c1nc2cc(Cl)ccc2s1 | 5.09 µM | 18.1% | – |
| COc1ccc(NC(=O)c2nc3cc(C(F)(F)F)ccc3s2)cc1 | 2.21 µM | 35.7% | 64 |
| O=C(Nc1ccccc1F)c1nc2cc(C(F)(F)F)ccc2s1 | 73.5 µM | – | – |
| Cc1ccccc1NC(=O)c1nc2cc(Cl)ccc2s1 | 82.6 µM | – | – |
| O=C(Nc1ccccc1C(F)(F)F)c1nc2ccccc2s1 | 38.8 µM | – | – |
| O=C(Nc1ccc(Br)cc1)c1nc2ccccc2s1 | > 75 µM | – | – |
| Cc1cc(C)c(NC(=O)c2nc3cc(C(F)(F)F)ccc3s2)c(C)c1 | 68.6 µM | – | – |
| O=C(Nc1ccccc1F)c1nc2ccccc2s1 | 11.5 µM | 24.9% | – |
| O=C(Nc1ccc(N2CCOCC2)cc1)c1nc2cc(C(F)(F)F)ccc2s1 | 61.4 µM | – | – |
| O=C(Nc1ccccc1Cl)c1nc2ccccc2s1 | 5.4 µM | 24% | – |
| CC[C@@H](CO)NCCN[C@@H](CC)CO [ETHAMBUTOL] | 1.56 µg/mL | – | – |
| NNC(=O)c1ccncc1 [ISONIAZID] | 0.098 µg/mL | – | – |
| NC(=O)c1cnccn1 [PYRAZINAMIDE] | 6.25 µg/mL | – | – |
| CO[C@H]1/C=C/O[C@@]2(C)Oc3c(C)c(O)c4c(O)c(c(/C=N/N5CCN(C)CC5)c(O)c4c3C2=O)NC(=O)/C(C)=C\C=C\[C@H](C)[C@H](O)[C@@H](C)[C@@H](O)[C@@H](C)[C@H](OC(C)=O)[C@@H]1C [RIFAMPIN] | 0.197 µg/mL | – | – |
